Patent US8557530B2, “Use of a TAS2R7 nucleic acid sequence to identify modulators” (Givaudan SA, priority 2008, dated 2013)

Tests used:
human TAS2R7 [1] = molecular target: T1, human TAS2R7 (Homo sapiens, UniProt Q9NYW3, L71P); assay: Fluo-4 calcium assay, HEK293T/Gα16-gustducin44 cells transiently expressing TAS2R7; assay type: cell-based; details: for TAS2R7 ΔF/F0: transiently transfected cells
T1 construct: RSS tag (first 45 amino acids of rat somatostatin receptor subtype 3, membrane export tag) (N); expressed in transfected cells
T1 sequence (Q9NYW3 with tags, fused parts or gaps L71P): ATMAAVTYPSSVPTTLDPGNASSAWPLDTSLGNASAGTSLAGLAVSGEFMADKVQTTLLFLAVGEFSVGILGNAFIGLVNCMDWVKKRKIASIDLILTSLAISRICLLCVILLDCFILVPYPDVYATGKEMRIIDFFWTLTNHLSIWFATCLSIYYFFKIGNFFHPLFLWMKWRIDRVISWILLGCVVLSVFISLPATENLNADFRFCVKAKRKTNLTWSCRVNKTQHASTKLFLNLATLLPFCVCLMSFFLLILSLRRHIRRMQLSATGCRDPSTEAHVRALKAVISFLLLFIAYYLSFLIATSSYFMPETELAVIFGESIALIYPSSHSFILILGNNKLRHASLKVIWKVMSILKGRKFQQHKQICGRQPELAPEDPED
Protocol: On day 0, the HEK293T/Gα16-gustducin 44 cells were plated in 96-well black wall, clear-bottom plates at a density of 15,000 cells per well and grown overnight in growth media (DMEM with 10% (v/v) heat-inactivated fetal bovine serum, 2 mM L-glutamine, 100 units/ml penicillin, 100 μg/ml streptomycin).
On day 1, the media was changed to an antibiotic-free and serum-free DMEM. The cells were transfected with TAS2R7 using Lipofectamine 2000 (Invitrogen).
Per well of a 96-well plate, 150 ng of vector DNA (TAS2R7 expression vectors from example 1) was diluted in 12.5 μl of DMEM. In a second tube, 0.3 μl of Lipofectamine 2000 was diluted in 12.5 μl of DMEM and incubated for 5 min at room temperature. After the 5 min, both solutions were mixed and incubated for 20 min at RT. The growth medium in the plate was exchanged for 50 μl of DMEM and 25 μl of the lipofectamine/DNA mixture was incubated on the cells for 3-4 hours at 37° in a humidified atmosphere. This mixture was then replaced with an antibiotic-free, serum-containing DMEM.
24 hours post transfection, the cells were used in the Fluo-4 Calcium Assay as described in Example 3.
(§1) At day 0, the HEK293T cell line expressing Gα16-gustducin44 and a TAS2R7 bitter taste receptor formed as described in examples 2a or 2b was seeded in antibiotic-free growth medium (standard DMEM with 10% (v/v) heat-inactivated fetal bovine serum, 2 mM L-glutamine […]) into black wall/clear bottom 96-well plates, coated with poly(ethylenimine) (0.005% v/v) at a concentration of 15,000 cells per well and incubated for 48 hours in humidified atmosphere (37° C., 5% CO2).
(§2) At the time of the assay, the growth medium was discarded and the cells were in humidified atmosphere (37° C., 5% CO2) for 1 hour with […] of loading buffer consisting of 1.5 μM Fluo-4 AM and 2.5 mM probenecid (Sigma-Aldrich, St. Louis, Mo., U.S.) in DMEM.
(§3) Afterwards, the 96-well plate was washed 5 times with 100 μl of assay buffer (130 mM NaCl, 5 mM KCl, 10 mM HEPES, 2 mM CaCl2, and 5 mM dextrose, pH 7.4) per well, using an automated plate washer (BioTek). The plate was further incubated for 30 minutes at room temperature in the dark to allow for complete de-esterification of the Fluo-4. Afterwards the plate was washed 5 times with 100 μl of assay buffer per well, and reconstituted with 100 μl of assay buffer per well.
(§4) For assay reading the plate was placed in a Fluorometric Imaging Plate Reader (FLIPR) (FLIPR-TETRA™, Molecular Devices, Sunnyvale, Calif., US), and receptor activation was initiated by addition of 20 microliter of a tenfold concentrated agonist stock solution (to give the desired agonist end concentration when added to the 180 microliter assay buffer volume), which was prepared in assay buffer.
(§5) Fluorescence was continuously monitored for 20 seconds to give a signal baseline (averaged to give F0) prior to agonist addition and for 120 seconds after agonist addition. The change in signal divided by F0 gives ΔF/F0 indicated in the table, with ΔF being the maximum signal occurring within the 120 seconds minus the minimum signal (occurring within the 120 seconds after agonist addition).
(§6) The obtained calcium signals were corrected for the response of cells expressing only the G-Protein α subunit (Gα16-gustducin44) and normalized to the fluorescence of cells prior to the stimulus using ΔF/F0 (Fmax−Fmin/F0).
The intracellular calcium response following the addition of L-menthol was determined in a HEK293T cell line stably expressing Gα16-gustducin44 and transiently expressing TAS2R7, formed as described in example 2a.

[2] = test system: more than 15 of the other human TAS2Rs; assay: Activation test on other human TAS2Rs; assay type: cell-based; details: more than 15 other human TAS2Rs
human TAS2R7 [3] = molecular target: T1, human TAS2R7; assay: Fluo-4 calcium assay, HEK293T/Gα16-gustducin44 cell line stably expressing TAS2R7; assay type: cell-based; details: stable cell line
Protocol: Cell lines that stably expresses TAS2R7 was generated by transfecting the pcDNA3.1Zeo-TAS2R7 construct into HEK293T/Gα16-gustducin 44 cells (formed as described in example 1). The host cell line HEK-293T is commercially available from the American Tissue Culture Collection (ATCC), ATCC®#CRL-11268.
TAS2R7 expressing cells were identified by their response to 2.6 mM L-menthol, which was determined via automated fluorimetric imaging on the FLIPR-TETRA™ (Molecular Devices, Sunnyvale, Calif., U.S.) as described in example 3. One clone was selected, resulting in the HEK293T/Gα16-gustducin 444/TAS2R7 cell line.
as §1, §2, §3, §4, §5
All data was collected from at least two independent experiments each carried out in triplicate.
A concentration-response analysis was performed and EC50 values were calculated by nonlinear regression using the function f(x)=(a−d)/(1+(x/C)^nh)+d; with a=minimum signal, d=maximum signal, nh=hill coefficient, C=EC50, and x=agonist concentration. EC50 is the molar concentration of an agonist which produces 50% of the maximum possible effective response for that agonist.
as §6
To confirm that the cell line formed in example 2b stably expresses the bitter taste receptor TAS2R7, a concentration-response curve for L-menthol was generated. […] The standard deviation (+/−STD) is also indicated.
Each sample (receptors as well as controls) contained a final concentration of 0.02% DMSO to allow for comparability of all examples below.

[4] = test system: HEK293T Gα16gustducin44 cells (that do not express TAS2R7); assay: Fluo-4 calcium assay, negative control HEK293T Gα16gustducin44 cells that do not express TAS2R7; assay type: cell-based, human; details: cells without TAS2R7
TAS2R7 = molecular target: T2, TAS2R7 (Homo sapiens, UniProt Q9NYW3); details: known from the art; cited from earlier work
T2 sequence (Q9NYW3 1-318): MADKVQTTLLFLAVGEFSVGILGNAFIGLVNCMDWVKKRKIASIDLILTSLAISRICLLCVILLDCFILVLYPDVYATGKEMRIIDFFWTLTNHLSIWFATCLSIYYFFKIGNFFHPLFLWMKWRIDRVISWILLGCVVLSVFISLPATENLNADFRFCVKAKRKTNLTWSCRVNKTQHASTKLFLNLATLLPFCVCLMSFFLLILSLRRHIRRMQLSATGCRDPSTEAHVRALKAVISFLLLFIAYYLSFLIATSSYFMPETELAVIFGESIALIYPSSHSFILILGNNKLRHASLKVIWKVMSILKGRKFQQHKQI

CC1CC[C@H](C(C)C)[C@@H](O)C1 (stereo partly drawn) [D-menthol]
activation of TAS2R7 (human TAS2R7 [1]; similar results as for L-menthol): shown to activate TAS2R7

CC(C)[C@@H]1CC[C@@H](C)C[C@H]1O [L-menthol]
activation of other human TAS2Rs [2]: not to be activated | TAS2R7 ΔF/F0 (human TAS2R7 [3]; L-menthol 0.01 mM): 0.09 | TAS2R7 ΔF/F0 (human TAS2R7 [3]; L-menthol 0.02 mM): 0.09 | TAS2R7 ΔF/F0 (human TAS2R7 [3]; L-menthol 0.04 mM): 0.13 | TAS2R7 ΔF/F0 (human TAS2R7 [3]; L-menthol 0.08 mM): 0.12 | TAS2R7 ΔF/F0 (human TAS2R7 [3]; L-menthol 0.16 mM): 0.23 | TAS2R7 ΔF/F0 (human TAS2R7 [3]; L-menthol 0.33 mM): 0.61 | TAS2R7 ΔF/F0 (human TAS2R7 [3]; L-menthol 0.65 mM): 1.03 | TAS2R7 ΔF/F0 (human TAS2R7 [3]; L-menthol 1.30 mM): 1.16 | TAS2R7 ΔF/F0 (human TAS2R7 [3]; L-menthol 2.60 mM): 0.92 | activation of TAS2R7 (human TAS2R7 [3]): activated | EC50 (human TAS2R7 [3]; nonlinear regression of concentration-response, read-out: calculated EC50 value for TAS2R7): 310 µM | TAS2R7 ΔF/F0 (human TAS2R7 [1]; L-menthol 0.01 mM): 0.09 | TAS2R7 ΔF/F0 (human TAS2R7 [1]; L-menthol 0.02 mM): 0.08 | TAS2R7 ΔF/F0 (human TAS2R7 [1]; L-menthol 0.04 mM): 0.08 | TAS2R7 ΔF/F0 (human TAS2R7 [1]; L-menthol 0.08 mM): 0.10 | TAS2R7 ΔF/F0 (human TAS2R7 [1]; L-menthol 0.16 mM): 0.15 | TAS2R7 ΔF/F0 (human TAS2R7 [1]; L-menthol 0.33 mM): 0.34 | TAS2R7 ΔF/F0 (human TAS2R7 [1]; L-menthol 0.65 mM): 0.41 | TAS2R7 ΔF/F0 (human TAS2R7 [1]; L-menthol 1.30 mM): 0.53 | TAS2R7 ΔF/F0 (human TAS2R7 [1]; L-menthol 2.60 mM): 0.65 | calcium signalling upon addition (human TAS2R7 [1]; cells transiently expressing human TAS2R7): significant concentration-dependent increase | Neg. Control ΔF/F0 ([4]; L-menthol 0.01 mM): 0.09 | Neg. Control ΔF/F0 ([4]; L-menthol 0.02 mM): 0.08 | Neg. Control ΔF/F0 ([4]; L-menthol 0.04 mM): 0.08 | Neg. Control ΔF/F0 ([4]; L-menthol 0.08 mM): 0.10 | Neg. Control ΔF/F0 ([4]; L-menthol 0.16 mM): 0.15 | Neg. Control ΔF/F0 ([4]; L-menthol 0.33 mM): 0.34 | Neg. Control ΔF/F0 ([4]; L-menthol 0.65 mM): 0.41 | Neg. Control ΔF/F0 ([4]; L-menthol 1.30 mM): 0.53 | Neg. Control ΔF/F0 ([4]; L-menthol 2.60 mM): 0.65 | change above the background signal in negative control [4]: did not show a significant change above the background signal

CCN(CC)CCCC(C)Nc1ccnc2cc(Cl)ccc12 (centres unmarked) [chloroquine]
response of TAS2R7 (TAS2R7): known to respond

C=C[C@H]1C[N@@]2CC[C@H]1C[C@H]2[C@H](O)c1ccnc2ccc(OC)cc12 [quinine]
response of TAS2R7 (TAS2R7): known to respond
